Measurements from patent US6482819B1, “2,3-benzodiazepine derivatives” (Gyogyszerkutato Intezet Kft., priority 1997, dated 2002).

Key:
[1] = tested on: CD 1 mice; assay: Muscle relaxant activity, inclined screen test; format: in vivo; details: Mus musculus, ip
Protocol: (§1) The muscle relaxant activity of the compounds of general formula (I) was measured in the “inclined screen” test of Randall [J. Pharmacol. Exp. Ther. 129, 163 (1960)] and in the rotarod test [J. Am. Pharm. Assoc. 46, 208 (1975)]. The compounds were administered in 3 i. p. doses to ten CD 1 mice in each dose group.

[2] = tested on: CD 1 mice; assay: Muscle relaxant activity, rotarod test; format: in vivo; details: Mus musculus, ip
Protocol: as §1

[3] = tested on: nicotine induced convulsions in mice; assay: Anticonvulsive effect, nicotine induced convulsions; format: in vivo; details: Mus musculus, po, 60 minutes pretreatment
Protocol: (§2) In Table I the anticonvulsive effect of some compounds of the invention in the electroshock test is presented [J. Pharmacol. Exp. Ther. 106, 319 (1952)]. The anticonvulsive effect was also studied in convulsions induced by various chemical agents, e. g. pentetrazole [J. Pharmacol. Exp. Ther 108, 168 (1953)], strychnine [J. Pharmacol. Exp. Ther. 129, 75 (1960)], bemegride, nicotine, bicuculline, 4-aminopyridine and 3-mercaptopropionic acid. The pretreatment period was 60 minutes. The test compounds were administered orally in 3 doses to 10 male CD 1 mice in each dose group.

[4] = tested on: AMPA (5 μM) induced spreading depression, isolated chicken retina; assay: Inhibition of AMPA induced spreading depression in the isolated chicken retina preparation; format: cell-based; details: Gallus gallus
From the text: (§3) In the first model the “spreading depression” inducing effect of glutamate agonists was studied, while in the second model the transmembrane ion current induced by the activation of glutamate receptors was directly measured.
(§4) Inhibition of AMPA and Kainate Induced “Spreading depression” in the Isolated Chicken Retina Preparation
(§5) The kainate and AMPA antagonizing effect was studied in vitro in the retinal “spreading depression” model [M. J. Sheardown: Brain Res. 607, 189 (1993)]. The AMPA/kainate antagonists extend the latency of the kainate (5 μM) or AMPA (5 μM) induced development of “spreading depression”.

[5] = tested on: anesthesized rats, middle cerebral artery occlusion; assay: Inhibition of focal ischemia, middle cerebral artery occlusion (MCAO) test; format: in vivo; details: for Infarcted area in percent of cerebral hemosphere / Score of infarcted area (size of infarcted area) / Change % of size of infarcted area: MCAO; for Change % of size of infarcted area: versus vehicle
Protocol: The focal ischemia inhibiting effect of the compound of Example 17 was studied on the “middle cerebral artery occlusion” (MCAO) test in anesthesized rats. […] After histological processing the developed infarcted area was measured by a computerized scanner program [R. T. Bartus: Stroke 11, 2265 (1994) and S. G. Sydserff: Brit. J. Pharmacol. 114, 1631 (1995)].

[6] = tested on: AMPA receptors (kainate induced current, Purkinje cells); assay: Inhibition of kainate induced whole cell currents on Purkinje cells of the cerebellum; format: cell-based; details: 100 μM kainate, read-out: IC50 against kainate, whole cell currents
Protocol: (§6) Inhibition of AMPA and Kainate Induced Transmembrane Currents
(§7) The effect of the compound of Example 17 on whole cell currents induced by 100 μM kainate or 5 μM AMPA, resp., was studied on Purkinje cells of the cerebellum according to the method of Bleakman et al. [Neuropharmacology 12, 1689 (1996)]. […] In this preparation kainate was also exerting its effect through the activation of AMPA receptors.

[7] = tested on: bicuculline induced convulsions in mice; assay: Anticonvulsive effect, bicuculline induced convulsions; format: in vivo; details: Mus musculus, po, 60 minutes pretreatment
Protocol: as §2

[8] = tested on: AMPA receptors (AMPA induced current, Purkinje cells); assay: Inhibition of AMPA induced whole cell currents on Purkinje cells of the cerebellum; format: cell-based
Protocol: as §6, §7

[9] = tested on: kainate (5 μM) induced spreading depression, isolated chicken retina; assay: Inhibition of kainate induced spreading depression in the isolated chicken retina preparation; format: cell-based; details: Gallus gallus
From the text: as §3, §4, §5

[10] = tested on: electroshock convulsions in mice; assay: Anticonvulsive effect, electroshock test; format: in vivo; details: Mus musculus, po, 60 minutes pretreatment
Protocol: as §2

[11] = tested on: pentetrazole induced convulsions in mice; assay: Anticonvulsive effect, pentetrazole induced convulsions; format: in vivo; details: Mus musculus, po, 60 minutes pretreatment
Protocol: as §2

[12] = tested on: bemegride induced convulsions in mice; assay: Anticonvulsive effect, bemegride induced convulsions; format: in vivo; details: Mus musculus, po, 60 minutes pretreatment
Protocol: as §2

Row | SMILES | ED50 [1] [mg/kg] | ED50 [2] [mg/kg] | ED50 [3] [mg/kg] | IC50 [4] [µM] | Rate of cerebral cell damage induced by occlusion of the middle cerebral artery ([5]; 6×1 mg/kg i.v.) | Infarcted area in percent of cerebral hemosphere ([5]; 6 × 1 mg/kg i.v.) [%] | Score of infarcted area (size of infarcted area) ([5]; 6 × 1 mg/kg i.v.) | Change % of size of infarcted area ([5]; 6 × 1 mg/kg i.v.) [%] | Infarcted area in percent of cerebral hemosphere ([5]; 6 × 2 mg/kg i.v.) [%] | Score of infarcted area (size of infarcted area) ([5]; 6 × 2 mg/kg i.v.) | Change % of size of infarcted area ([5]; 6 × 2 mg/kg i.v.) [%] | melting point [°C] | IC50 [6] [µM] | ED50 [7] [mg/kg] | IC50 ([8]; Purkinje cells of the cerebellum, 5 μM AMPA, read-out: IC50 against AMPA, whole cell currents) [nM] | Inhibition of ion current induced by AMPA receptor activation relative to GYKI 52466 ([8]; Purkinje cells, compared by IC50 values) | IC50 [9] [nM] | ED50 [10] [mg/kg] | ED50 [11] [mg/kg] | ED50 [12] [mg/kg]
1 | NCC(CC(=O)O)c1ccc(Cl)cc1 (stereo not drawn) [Baclofen, reference compound] | 26 | 13 |  |  |  |  |  |  |  |  |  |  |  |  |  |  |  |  |  | 
2 | Cc1cn2c(n1)Cc1ccc(Cl)cc1C(c1ccc(N)cc1)=N2 [Example 17] | 36 | 16 | 13 | 7.3 | significantly reduced | 13.4 ± 3.64 | 16122 ± 4368 | −60.2 | 11.0 ± 1.93 | 13229 ± 2313 | −67.4 | 229 to 230 | 4.97 | 23 | 2020 | twice as strongly inhibited | 2500 | 24 |  | 
3 | O=C1NC(=O)C(c2ccccc2)(c2ccccc2)N1 [Phenytoin, reference compound] |  |  | 12 |  |  |  |  |  |  |  |  |  |  |  |  |  |  | 10 | > 400 | > 200
